{"source": "patent US20180200279A1", "about": "“INHIBITION OF HSV-1-ASSOCIATED CORNEAL NEOVASCULARIZATION USING INHIBITORS OF CYCLIN-DEPENDENT KINASE 9” (XAVIER UNIVERSITY OF LOUISIANA, priority 2014, published 2018)", "key": {"[1]": {"system": "HUVEC", "assay": "Endothelial cell Matrigel transwell invasion assay", "type": "cell-based, human", "conditions": "25 ng/mL VEGF and bFGF", "description": "After 12-16 hours, tubules were counted at low magnification and percentage of inhibition was expressed using VEGF control wells as 100%.\nMigration/invasion assays were performed using 24-well, 8-μm pore size BD Biocoat Matrigel migration chambers according to the manufacturer's instructions (BD Biosciences, San Jose, Calif.). […] Cells were allowed to migrate for 16 hours at 37° C. Following incubation, cotton swabs were used to remove the cells on the top surface of the membrane, and cells on the bottom side of the membrane were fixed with 4% formaldehyde for 30 min, washed 3-5 times with PBS, and then stained with 10 μM Calcein AM (migration) or 10 μM Celltracker green-labeled (invasion). Migrating or invading cells from three repeats in two independent experiments were then counted using an inverted microscope. Data are expressed as mean percent migration and mean percent invading cells compared with untreated cells±SEM.\nIn addition to migration, new blood vessel formation requires that endothelial cells invade through extracellular matrix (ECM) surrounding the existing vasculature. Inhibition of invasion therefore inhibits angiogenesis. […] Celltracker green-labeled HUVEC that successfully degraded the Matrigel and crossed into the lower chamber containing 25 ng/mL VEGF and bFGF in the presence or absence of FP were counted and expressed as a percent of untreated control cells (FIG. 2B)."}, "[2]": {"system": "chick embryo chorioallantoic membrane", "assay": "Ex ovo chick chorioallantoic membrane (CAM) collagen onplant angiogenesis assay", "type": "in vivo", "conditions": "100 nM flavopiridol in bFGF/VEGF-containing collagen plugs; 3 days", "experimental": "After 3 days, CAMs were photographed, and angiogenesis was quantified by counting the number of grids positive for new blood vessel growth in a blinded manner. Results are expressed as number of grids positive for blood vessels and as percent positive grids.\nFemale 20 g Balb/c mice were obtained from Charles River Laboratories. Mice were allowed to equilibrate to their surroundings for 2 weeks and then were anesthetized by intramuscular administration of xylazine (6.6 mg/kg of body weight) and ketamine (100 mg/kg of body weight). The corneas were mildly scarified in a 2×2 cross-hatch pattern and each cornea was inoculated with 5×10^5 PFU of strain HSV 17syn+. […] DNA was collected by swabbing the eyes with filter paper, and the eyes were examined with a slit-lamp on PI days 2, 4, 7, 9, 11, 14, 18 and 25. Average neovascularization/eye was scored using the formula A=(C×0.4×L×π)/2 where C=clock hours of neovascularization; 30° arc is 1 (360° circle with a total of 12); L is the length of the longest neovessel, and A is the area of neovascularization. Students scored (by eye) the animals on the days indicated in a masked fashion using the slit-lamp, and images representative of each group were taken. Clinical scores based on epiphora, inflammation and discharge were calculated where 0=no manifestations, +1=slight manifestations, +2=moderate manifestations, and +3=severe manifestations. […]"}, "[3]": {"system": "HUVEC", "assay": "Global transcription, BrU incorporation into RNA by flow cytometry", "type": "cell-based, human", "conditions": "serum-starved, PMA-treated HUVEC", "experimental": "Vein endothelial cells (VEC) were activated with phorbol myristate acetate (PMA) and incubated with membrane-permeable 5-bromouridine (BrU) that incorporates into RNA transcribed during the incubation period. A commercially available antibody against 5-bromo-deoxy-uridine was then used to quantify BrU-containing RNA. Cells were analyzed by immunofluorescence staining (not shown) and by flow cytometry for the presence of incorporated BrU to quantify the level of global transcription. […] Additional controls include no antibody and no BrU.\nTo determine whether FP blocked transcription globally at concentrations at which it reduces angiogenesis in vitro, HUVEC were activated with phorbol myristate acetate (PMA) and incubated with membrane-permeable 5-bromouridine (BrU) that incorporates into RNA transcribed during the incubation period. A commercially available antibody against 5-bromo-deoxy-uridine was then used to quantify BrU-containing RNA. Cells were analyzed by immunofluorescence staining (not shown) and by flow cytometry for the presence of incorporated BrU to quantify the level of global transcription.\nAdditional controls include no antibody (-Ab) and no BrU (-BrU) (FIG. 5A)."}, "[4]": {"assay": "Ocular safety and tolerability of the formulation, rabbit eyes", "type": "in vivo", "conditions": "dose and frequency of the HSV-1 corneal neovascularization study", "description": "This was assessed with the dose and frequency that was used in the chemotherapeutic study of HSV-1 corneal neovascularization. FIG. 1A presents the results of slit-lamp examination (SLE) scores of the corneas of the four treatment groups beginning on post-inoculation day 2 and continuing to 25 days following infection."}}, "data": [{"compound": "CN1CC[C@H](c2c(O)cc(O)c3c(=O)cc(-c4ccccc4Cl)oc23)[C@H](O)C1", "note": "[flavopiridol]", "values": [{"measurement": "invading cells as percent of untreated control", "setting": "[1]; 50 nM flavopiridol", "result": "67.08%±6.50"}, {"measurement": "invading cells as percent of untreated control", "setting": "[1]; 100 nM flavopiridol", "result": "59.74%±6.98"}, {"measurement": "invading cells as percent of untreated control", "setting": "[1]; 200 nM flavopiridol", "result": "32.64%±8.58"}, {"measurement": "angiogenesis: grids positive for newly formed blood vessels", "setting": "[2]", "result": "14.33±2.10"}, {"measurement": "BrU incorporation into RNA (total cellular transcription)", "setting": "[3]; 50 nM-300 nM FP", "result": "only slightly reduced"}, {"measurement": "BrU incorporation into RNA (total cellular transcription)", "setting": "[3]; 600 nM-1 μM FP", "result": "significantly (p<0.05 compared with untreated cells) reduced BrU incorporation into RNA"}, {"measurement": "safety and tolerability of the formulation in the eye", "setting": "[4]", "result": "safe and well-tolerated"}]}]}
